Test results from article PMC10244465, “Native American ataxia medicines rescue ataxia-linked mutant potassium channel activity via binding to the voltage sensing domain” (Nature Communications, 2023).
Read-outs that look alike come from different tables or passages of the source. One block for each compound: values may come before it.

Assays:
Type in all cases: cell-based
[1] = target: T1, wild-type human Kv1.1 (Homo sapiens, UniProt Q09470); test: Two-electrode voltage clamp of oocytes expressing wild-type Kv1.1; settings: for shift of midpoint voltage-dependence of activation (V0.5 act): 100 µM; for effect on Kv1.1 activity: compound 100 µM; for EM (unclamped oocyte membrane potential) / Slope / V0.5 Normalized tail current: in presence of 100 µM compound
T1 construct: expressed in transfected cells; host or cells: Xenopus laevis oocytes injected with cRNA (pTLNx vector)
T1 sequence (Q09470 whole entry): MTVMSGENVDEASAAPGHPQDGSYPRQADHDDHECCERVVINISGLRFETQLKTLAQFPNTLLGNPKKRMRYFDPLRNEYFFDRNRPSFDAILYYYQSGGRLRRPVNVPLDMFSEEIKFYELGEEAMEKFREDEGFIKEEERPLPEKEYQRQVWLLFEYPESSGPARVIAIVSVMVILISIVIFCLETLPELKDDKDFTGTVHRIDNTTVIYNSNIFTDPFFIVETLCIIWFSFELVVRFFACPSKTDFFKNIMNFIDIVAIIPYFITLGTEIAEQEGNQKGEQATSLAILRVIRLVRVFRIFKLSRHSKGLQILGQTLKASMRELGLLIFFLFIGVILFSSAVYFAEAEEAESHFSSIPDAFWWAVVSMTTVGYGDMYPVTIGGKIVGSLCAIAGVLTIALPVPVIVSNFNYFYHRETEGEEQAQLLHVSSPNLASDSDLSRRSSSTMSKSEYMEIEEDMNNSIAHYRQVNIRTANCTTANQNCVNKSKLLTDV
Source text: (§1) Wild-type and mutant Kv1 cDNAs were generated (Genscript, Piscataway, NJ) in the pTLNx expression vector. As previously described, we generated cRNA transcripts encoding human Kv1.1 (wild-type and mutant) and Kv1.2, by in vitro transcription using the mMessage mMachine kit (Thermo Fisher Scientific), after vector linearization, from cDNA sub-cloned into plasmids (pTLNx) incorporating Xenopus laevis β-globin 5’ and 3’ UTRs flanking the coding region to enhance translation and cRNA stability. We injected defolliculated stage V and VI Xenopus laevis oocytes (Xenoocyte, Dexter, MI, US) with Kv1 cRNAs (1–5 ng). We incubated the oocytes at 16 °C in ND96 oocyte storage solution containing penicillin and streptomycin, with daily washing, for 2 days prior to two-electrode voltage-clamp (TEVC) recording.
(§2) We performed TEVC at room temperature using an OC-725C amplifier (Warner Instruments, Hamden, CT) and pClamp10 software (Molecular Devices, Sunnyvale, CA) 2 days after cRNA injection as described in the section above. For recording, oocytes we placed in a small-volume oocyte bath (Warner) and viewed with a dissection microscope. We sourced chemicals from Sigma. We studied effects of plant extracts and of compounds, solubilized directly in bath solution (in mM): 96 NaCl, 4 KCl, 1 MgCl2, 1 CaCl2, 10 HEPES (pH 7.6). We introduced extracts or compounds into the oocyte recording bath by gravity perfusion at a constant flow of 1 ml per minute for 3 min prior to recording. Pipettes were of 1–2 MΩ resistance when filled with 3 M KCl. We recorded currents in response to voltage pulses between −80 mV and +40 mV at 10 or 20 mV intervals from a holding potential of −80 mV, to yield current-voltage relationships and examine activation kinetics. To calculate the voltage dependence of activation (V0.5), tail currents were recorded at a voltage pulse of −50 mV immediately following prepulse voltages between −80 mV and +40 mV. We analyzed data using Clampfit (Molecular Devices) and Graphpad Prism software (GraphPad, San Diego, CA, USA), stating values as mean ± SEM. We plotted raw or normalized tail currents vs. prepulse voltage and fitted with a single Boltzmann function:1 g=(A1−A2)/1+exp[V1/2−V/Vs]y+A2 where g is the normalized tail conductance, A1 is the initial value at -∞, A2 is the final value at +∞, V1/2 is the half-maximal voltage of activation and Vs the slope factor.

[2] = target: T2, Kv1.1-G311D channels (Homo sapiens, UniProt Q09470, G311D); test: TEVC of oocytes expressing 100% Kv1.1-G311D; settings: compound 1 µM
T2 construct: expressed in transfected cells; host or cells: Xenopus laevis oocytes
T2 sequence (Q09470 whole entry G311D): as the sequence (Q09470 whole entry) above, with G311D counted along it
Source text: (§3) EA1 mutant G311D is in the S4-5 linker of Kv1.1 (Fig. 5a) and produces a 65% prepulse current reduction both in Kv1.1-G311D and in Kv1.1/Kv1.1-G311D channels[43],[44]; either channel type was minimally responsive to the plant extracts tested (Supplementary Figs. 3 and 4). EA1 mutant L328V (which is associated with tetany and hypomagnesemia) is located in the intracellular end of Kv1.1 S5 (Fig. 5a) and results in complete current loss in a dominant negative manner, i.e., Kv1.1-L328V and Kv1.1/Kv1.1-L328V channels are each nonfunctional. The traditional ataxia remedy plant extracts were unable to rescue Kv1.1-L328V or Kv1.1/Kv1.1-L328V function (Supplementary Figs. 5 and 6). EA1 mutant V408A is in the intracellular-proximal end of Kv1.1 S6 (Fig. 5a) and reduces current, speeds deactivation, and increases C-type inactivation of Kv1.1[46]. Here, Native American ataxia remedy extracts had relatively minor effects on Kv1.1-V408A activity, with nettle and Pacific ninebark (roots or leaves) inducing hyperpolarizing shifts in EM, and Pacific ninebark leaves inducing a negative shift in the voltage dependence of activation, although this was not quantifiable due to the very small tail currents (Supplementary Fig. 7). Effects of the extracts on Kv1.1/Kv1.1-V408A activity were also relatively minor (Supplementary Fig. 8). […]

[3] = target: T3, Kv1.1/Kv1.1-E283K channels (Homo sapiens, UniProt Q09470, E283K); test: TEVC of oocytes co-injected with 50/50 wild-type/E283K Kv1.1 cRNA
T3 construct: expressed in transfected cells; host or cells: Xenopus laevis oocytes co-injected with 50/50 wild-type/mutant cRNA
T3 sequence (Q09470 whole entry, stated change not applied): as the sequence (Q09470 whole entry) above
T3 sequence (Q09470 whole entry E283K): as the sequence (Q09470 whole entry) above, with E283K counted along it
Description: We next tested effects on channels generated by co-injection of 50/50 wild-type/mutant Kv1.1 cRNA. Strikingly, gallic acid (1 µM) was able to hyperpolarize (by −15.5 ± 0.5 mV; n = 4; P < 0.0001) the V0.5 act of Kv1.1/Kv1.1-E283K channels, restoring voltage dependence typical of wild-type Kv1.1 (Fig. 7a–c), also inducing a −14 ± 0.7 mV hyperpolarization (n = 4; P = 0.0005) in EM of oocytes expressing Kv1.1/Kv1.1-E283K (Fig. 7d). […] Because of this hint at activity improvement in L155P channels we also applied higher concentrations (10 and 100 µM) of gallic acid, which produced a more robust (−12.5 ± 0.6 mV and −14.1 ± 0.6 mV, respectively) hyperpolarization of Kv1.1/Kv1.1-L155P V0.5 act (Fig. 8b, c) and hyperpolarized EM by −14.0 ± 0.6 mV and −15.2 ± 0.7 mV, respectively (Fig. 8d).
as §1, §2

[4] = target: T4, Kv1.1-E283K channels (Homo sapiens, UniProt Q09470, E283K); test: TEVC of oocytes injected with 100% Kv1.1-E283K cRNA; settings: for EC50: biphasic dose response
T4 construct: expressed in transfected cells; host or cells: Xenopus laevis oocytes
T4 sequence (Q09470 whole entry E283K): as the sequence (Q09470 whole entry) above, with E283K counted along it

[5] = target: T5, Kv1.1-L328V channels (Homo sapiens, UniProt Q09470, L328V); test: TEVC of oocytes expressing 100% Kv1.1-L328V; settings: compound 1 µM
T5 construct: expressed in transfected cells; host or cells: Xenopus laevis oocytes
T5 sequence (Q09470 whole entry L328V): as the sequence (Q09470 whole entry) above, with L328V counted along it
Source text: as §3
We performed TEVC at room temperature using an OC-725C amplifier (Warner Instruments, Hamden, CT) and pClamp10 software (Molecular Devices, Sunnyvale, CA) 2 days after cRNA injection as described in the section above. […] We recorded currents in response to voltage pulses between −80 mV and +40 mV at 10 or 20 mV intervals from a holding potential of −80 mV, to yield current-voltage relationships and examine activation kinetics. To calculate the voltage dependence of activation (V0.5), tail currents were recorded at a voltage pulse of −50 mV immediately following prepulse voltages between −80 mV and +40 mV. We analyzed data using Clampfit (Molecular Devices) and Graphpad Prism software (GraphPad, San Diego, CA, USA), stating values as mean ± SEM. […]

[6] = -20 mV, Figure 6 table, head 1 µM Tannic acid, footnote bladderwrack kelp

Compound: O=C(O)c1cc(O)c(O)c(O)c1 [gallic acid]
shift of midpoint voltage-dependence of activation (V0.5 act) [1]: −21.0 ± 2.5 mV
EC50 ([1]; EC50 for hyperpolarization of EM, oocytes expressing wild-type Kv1.1): 18 ± 6 nM
EC50 ([1]; EC50 for peak current augmentation, at −40 mV, Fig. 10): 379 ± 28 nM
EC50 ([1]; EC50 for ΔV0.5activation, dose response, Fig. 4): 54 ± 10 nM
lowest concentration that begins to hyperpolarize the resting membrane potential ([1]; Kv1.1-expressing oocytes): 100 nM
effect on Kv1.1 activity [1]: highly efficacious Kv1.1 channel openers
maximal shift in V0.5activation ([1]; dose response, Fig. 4a): −20 mV
EM (unclamped oocyte membrane potential) [1]: -49.60 ± 0.91 mV
Slope [1]: 12.10 ± 2.32 mV
V0.5 Normalized tail current [1]: -37.17 ± 2.59 mV
effect on channel activity [2]: ineffective at rescuing activity
hyperpolarization in EM ([3]; 1 µM): −14 ± 0.7 mV
hyperpolarizing shift of V0.5 act ([3]; 1 µM): −15.5 ± 0.5 mV
EM ([3]; in presence of 1 µM compound): -47.80 ± 0.65 mV
Slope ([3]; in presence of 1 µM compound): 5.70 ± 1.12 mV
V0.5 Normalized tail current ([3]; in presence of 1 µM compound): -27.50 ± 0.51 mV
effect on channel activity ([4]; compound 1 µM): only very minor functional improvements
effect on channel activity [5]: ineffective at rescuing activity

shift of midpoint voltage-dependence of activation (V0.5 act) [1]: −25.6 ± 2.6 mV
effect on Kv1.1 activity [1]: highly efficacious Kv1.1 channel openers
EC50 ([1]; dose response, Fig. 4, read-out: EC50 for ΔV0.5activation): 19 ± 1.5 nM
EM (unclamped oocyte membrane potential) [1]: -54.40 ± 1.23 mV
Slope [1]: 13.67 ± 2.01 mV
V0.5 Normalized tail current [1]: -44.95 ± 2.49 mV
effect on channel activity [2]: did not alter
hyperpolarizing shift of V0.5 act ([3]; 1 µM): −12 mV
TauAct ([4]; 0 mV, 1 µM, Figure 9 table): 15.70 ± 1.40 ms
TauAct ([4]; 0 mV, Figure 6 table, head 1 µM Tannic acid, footnote bladderwrack kelp): 21.12 ± 4.35 ms
Peak current at -40 mV ([4]; 0.1 µM): 0.02 ± 0.01 µA
Peak current at -40 mV ([4]; 1 µM): 0.02 ± 0.01 µA
shift in the EM ([4]; 1 µM): ~−20 mV
shift of V0.5 activation ([4]; 1 µM): −13 ± 0.26 mV
Current-fold change -30 mV ([4]; 1 µM compound): 4.69 ± 1.69
increase of activity ([4]; 1 µM, at −40 to −20 mV): ≤ 20 fold
Peak current at -40 mV ([4]; 10 µM): 0.02 ± 0.01 µA
Peak current at -40 mV ([4]; 30 µM): 0.02 ± 0.01 µA
Peak current at -40 mV ([4]; 100 µM): 0.03 ± 0.01 µA
TauAct ([4]; +10 mV, 1 µM, Figure 9 table): 12.94 ± 1.05 ms
TauAct ([4]; +10 mV, Figure 6 table, head 1 µM Tannic acid, footnote bladderwrack kelp): 17.43 ± 3.97 ms
TauAct ([4]; +20 mV, 1 µM, Figure 9 table): 11.30 ± 0.89 ms
TauAct ([4]; +20 mV, Figure 6 table, head 1 µM Tannic acid, footnote bladderwrack kelp): 12.72 ± 2.85 ms
TauAct ([4]; +30 mV, 1 µM, Figure 9 table): 10.16 ± 0.83 ms
TauAct ([4]; +30 mV, Figure 6 table, head 1 µM Tannic acid, footnote bladderwrack kelp): 10.63 ± 2.79 ms
TauAct ([4]; +40 mV, 1 µM, Figure 9 table): 9.46 ± 0.83 ms
TauAct ([4]; +40 mV, Figure 6 table, head 1 µM Tannic acid, footnote bladderwrack kelp): 10.04 ± 2.65 ms
TauAct ([4]; -10 mV, 1 µM, Figure 9 table): 20.71 ± 2.35 ms
TauAct ([4]; -10 mV, Figure 6 table, head 1 µM Tannic acid, footnote bladderwrack kelp): 27.06 ± 7.08 ms
TauAct ([4]; -20 mV, 1 µM, Figure 9 table): 31.31 ± 2.98 ms
TauAct [4, 6]: 41.32 ± 8.47 ms
TauDeact [4, 6]: 0.87 ± 0.36 ms
TauDeact ([4]; -30 mV, Figure 6 table, head 1 µM Tannic acid, footnote bladderwrack kelp): 0.79 ± 0.32 ms
TauDeact ([4]; -40 mV, Figure 6 table, head 1 µM Tannic acid, footnote bladderwrack kelp): 0.88 ± 0.36 ms
TauDeact ([4]; -50 mV, Figure 6 table, head 1 µM Tannic acid, footnote bladderwrack kelp): 1.04 ± 0.44 ms
TauDeact ([4]; -60 mV, Figure 6 table, head 1 µM Tannic acid, footnote bladderwrack kelp): 1.23 ± 0.52 ms
TauDeact ([4]; -70 mV, Figure 6 table, head 1 µM Tannic acid, footnote bladderwrack kelp): 1.38 ± 0.56 ms
TauDeact ([4]; -80 mV, Figure 6 table, head 1 µM Tannic acid, footnote bladderwrack kelp): 1.50 ± 0.57 ms
EC50 ([4]; read-out: EC50 for effects on EM, first component): 1.1 ± 0.9 nM
EC50 ([4]; read-out: EC50 for effects on EM, second component): 10000 ± 400 nM
EC50 ([4]; from the increase in relative tail current at −40 mV, read-out: EC50, higher sensitivity component): 3.7 ± 2.6 nM
EM ([4]; in presence of 1 µM compound): -44.83 ± 0.14 mV
Slope ([4]; in presence of 1 µM compound): 8.70 ± 1.19 mV
V0.5 Normalized tail current ([4]; in presence of 1 µM compound): -22.75 ± 1.34 mV
effect on channel activity [5]: does not rescue
Compound: tannic acid
